Measurements reported in patent publication US11613587B2, “Combination therapy of T cell activating bispecific antigen binding molecules and PD-1 axis binding antagonists” (Hoffmann-La Roche Inc., priority 2014, dated 2023).

Tests used:
[1] = biological target: T1, FolR1 on Hela, Skov3, OVCAR5, HT29, MKN45 tumor cells (Homo sapiens, UniProt P15328); experiment: Binding to tumor cells with different FolR1 expression levels (flow cytometry)
T1 construct: endogenous in cells; host or cells: tumour cell line panel (HeLa, SKOV3, OVCAR5, HT-29; MKN-45 as FolR1-negative line)
T1 sequence (P15328 25-257): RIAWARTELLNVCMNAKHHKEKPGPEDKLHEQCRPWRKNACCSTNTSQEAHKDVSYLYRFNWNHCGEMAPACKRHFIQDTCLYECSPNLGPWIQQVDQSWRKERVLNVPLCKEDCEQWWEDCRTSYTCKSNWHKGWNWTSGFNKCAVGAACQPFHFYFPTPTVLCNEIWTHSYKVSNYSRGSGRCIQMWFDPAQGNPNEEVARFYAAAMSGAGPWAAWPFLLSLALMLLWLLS
From the text: FIGS. 6A-E depict graphs summarizing binding of FolR1 IgGs to cells with different FolR1 expression levels. […] DP47 IgG was included as isotype control and MKN-45 were included as FolR1 negative cell line.
The FolR1 TCBs were used to determine T cell mediated killing of tumor cells expressing FoLR1. A panel of potential target cell lines was used to determine FoLR1 binding sites by Qifikit analysis.
The used panel of tumor cells contains FolR1 high, intermediate and low expressing tumor cells and a FolR1 negative cell line.
The amount of bound construct is proportional to the FolR1 expression level and there is still good binding of the constructs to the FolR1 low cell line HT-29 detectable. […] DP47 TCB is an untargeted TCB and was prepared as described in WO2014/131712.

[2] = tested on: PBMCs co-cultured with Skov3; experiment: Activation of T-cells from healthy donors by FolR1-TCB (PBMC co-cultured with Skov3); format: cell-based, human; details: 0.6 pM to 2 nM, 24 h
Description: FIGS. 40A-C show activation of CD8^+ T-cells upon exposure to increasing concentrations of FolR1-TCB. PBMCs were co-cultured with Skov3 cells for 24 h in the presence or absence of FolR1-TCB or the unspecific control DP-47-TCB. […] Shaded histogram: isotype control; open histogram: anti-FolR1-antibody. FIG. 40B: The expression of the activation markers CD25, CD137, and ICOS on CD8^+ T-cells was determined by flow cytometry. FIG. 40C: IFN-v.
To assess the effect of FolR1-TCB on T-cell activation peripheral blood mononuclear cells (PBMCs) from healthy donors were co-cultured with the FolR1^+ ovarian cancer cell line Skov3 (FIG. 40A). […] In addition, T-cells secreted IL-2, IFN-γ, and TNF.

SKOV3 cells [3] = experiment: Killing assay with tumor samples and CFSE-labelled Skov3 cells; format: cell-based
Description: To determine the FolR1-TCB induced tumor cell killing, 3×10^4 CFSE-labelled Skov3 cells were cocultured with tumor samples in the presence or absence of FolR1-TCB at a concentration of 2 nM for 24 h in 96-well flat bottom cell culture plates. The E:T ratio (E: effector CD45+CD3+ cells; T: target FolR1^+ cells from tumor and added Skov3 cells) was adjusted to 1:1 in each well and the cell number of the added tumor samples was calculated for each sample according to prior characterization by flow cytometry. Cell death of Skov3 cells was determined by flow cytometry by measuring activated caspase 3 and the live/dead marker Live/Dead-near-IR. The assay was performed in triplicates. The FolR1-TCB mediated killing was calculated according to the following equation: % of specific killing=100−[(% of Skov3 live cells in FolR1-TCB treated sample/% of Skov3 live cells in untreated sample)×100].
To compare the FolR1-TCB-induced killing capacity of T-cells between tumor samples, and to exclude additional factors suppressing T-cell functionality, such as expression of PD-L1 on the tumor cells, we exogenously added CFSE-labeled FolR1^+ Skov3 cells to the tumor digests and adjusted the E:T ratio to 1:1, essentially as described above. We then measured the FolR1-TCB-induced killing of CFSE-labeled Skov3 cells, which allowed us to also include FolR1^− tumor samples into the analysis. […]

[4] = tested on: T cells in FolR1 positive tumor digests or malignant effusions; experiment: Ex vivo treatment of tumor samples with FolR1-TCB (T cell activation and effector function); format: cell-based, human; details: 24 h
Description: FolR1 positive tumor digests or malignant effusions were thawed, washed and plated in 96-well flat bottom cell culture plates (BD Falcon) with a density of […] cells/200 μl/well in complete medium (DMEM+Sodium Pyruvate (1 mM)+MEM non essential AA (1×)+L-Glutamin (2 mM)+Penicillin/Streptomycin ([…])+2-Mercaptoethanol (50 nM)+Ciproxin (1 mg/ml)+10% human Serum). The samples were cultured in the presence or absence of FolR1-TCB or DP47 TCB at a concentration of 2 nM for 24 h. Activation of CD8^+ and CD4^+ T cells (CD45^+CD3^+) upon FolR1-TCB treatment was determined by multicolor flow cytometry by measuring the expression of the cell surface markers CD25, CD69, CD137, ICOS, PD-1 and Tim-3. Furthermore the expression of granzyme B and IFN-γ was determined by intracellular staining. […]
We analyzed whether the expression of inhibitory receptors could be correlated with a diminished T-cell functionality upon FolR1-TCB treatment.

SKOV3 cells [5] = experiment: T cell mediated killing (LDH release); format: cell-based, human; details: SKOV3 and HT-29 cells, used concentrations
Description: FIGS. 7A-L depict graphs summarizing T cell mediated killing of HT-29 and SKOV3 cells. FolR1 TCBs were used to test T cell mediated killing of HT-29 and SKOV3 tumor cells and upregulation of activation marker on T cells upon killing. […] DP47 TCB was included as negative control. After 48 h incubation upregulation of the activation marker CD25 and CD69 on CD8 T cells and CD4 T cells upon killing of SKOV3 (FIGS. 7E-H) or HT-29 (FIG. 7I-L) tumor cells was assessed by flow cytometry.
Overall killing of SKOV3 cells was higher compared to HT-29 which reflects the higher expression levels of FolR1 on SKOV3 cells (FIGS. 7A-D). In line with this, a strong upregulation of the activation marker CD25 and CD69 on CD4^+ T cells and CD8^+ T cells was detected. Activation of T cells was very similar in the presence of SKOV3 cells and HT-29 cells.

[6] = tested on: CD4+ and CD8+ T cells in whole blood; experiment: T cell activation in whole blood; format: cell-based, human; details: 24 h after addition
From the text: FIGS. 9A-D depict graphs summarizing activation marker upregulation in whole blood.
DP47 TCB was included as negative control.

[7] = tested on: T cells in EpCAM positive tumor digests or malignant effusions; experiment: Ex vivo treatment of tumor samples with catumaxomab; format: cell-based, human; details: 4 NSCLC tumor digests, 10 ng/ml, 24 h
Description: The trifunctional TCB catumaxomab (Removab®) was obtained from Fresenius. The experimental conditions were similar as indicated above for FolR1-TCB. Briefly, EpCAM positive tumor digests or malignant effusions were cultured in the presence or absence of catumaxomab at a concentration of 10 ng/ml for 24 h. Analysis of CD8^+ and CD4^+ positive T cells (CD45+CD3+) was performed as described above.
To determine to which extent catumaxomab induces T cell activation and to confirm the findings described above using a second, independent T cell bispecific molecule, 4 tumor digests from patients with NSCLC were exposed to catumaxomab, a trifunctional bispecific antibody recognizing CD3 on T cells and EpCAM on tumor cells. Then, T cells were characterized by flow cytometry for expression of activation markers and T cell effector functions (FIG. 17A-D). […] Accordingly, the baseline expression of inhibitory receptors differed between the patients (FIG. 17E-H).

T cells in tumor digests = experiment: Polyclonal stimulation with anti-CD3/CD28 antibodies and PD-1 blockade; format: cell-based, human; details: 10 μg/ml, 24 hrs
[8] = tested on: T cells in FolR1+ tumor digests or malignant effusions; experiment: FolR1-TCB with PD-1 blockade in tumor digests or malignant effusions (cytokine secretion); format: cell-based, human; details: combined with FolR1-TCB
Description: FIG. 38A-D: FolR1^+ tumor digests or malignant effusions were cultured for 24 h with FolR1-TCB in the presence or absence of a PD-1 blocking antibody. […] The increase in cytokine secretion upon combined FolR1-TCB and anti-PD-1 treatment compared with FolR1-TCB alone was determined in PD-1^hi scarce and abundant tumors. FIG. 38E: Tumor digests or malignant effusions were co-cultured with exogenously added fluorescently labeled Skov3 cells at an E:T ratio of 1:1 for 24 h in the presence or absence of a PD-1 blocking antibody and FolR1-TCB. The increase in specific killing by the anti-PD-1 antibody was compared in PD-1^hi scarce and abundant tumors. p-values were calculated using the unpaired Mann-Whitney test.
As the level of PD-1 expression on TILs correlates with the efficacy of FolR1-TCB, we analyzed whether blockade of the PD-1/PD-L1 axis in combination with FolR1-TCB treatment might be able to restore T-cell function.

With “DP47 TCB: untargeted TCB, negative control, prepared as described in WO2014/131712” the “binding to panel of tumor cell lines” value [1] was “no binding”, the “T-cell activation (CD25, CD137, ICOS)” value [2] was “did not induce any T-cell activation” and the tumor cell killing (SKOV3 cells [3]; E:T 1:1, 24 h) was “did not induce any tumor cell killing”. For the same substance, the T cell activation [4] was “did not induce any T cell activation” and the “induction of tumor cell killing” value (SKOV3 cells [5]) was “does not induce any killing”.

With “Mov19 TCB: reference FolR1/CD3 T-cell bispecific with Mov19 binder [reference compound]” the “upregulation of CD25 and CD69 on CD4+ and CD8+ T cells in whole blood” value [6] was “No activation of T cells”.

In the case of catumaxomab, the “catumaxomab induced T cell activation” value [7] is reported as “striking heterogeneity”.

nivolumab: PD-1 blocking antibody was tested, and the “cytotoxic tumor cell killing upon additional PD-1 blockade” value (SKOV3 cells [3]; combined with FolR1-TCB, PD-1hi scarce and abundant tumors) was “could neither be improved”, the “restoration of T cell effector function (IL-2, IFN-γ, TNF-α)” value (T cells in tumor digests) was “only in some patients” and the “secretion of IFN-γ, TNF, IL-2 and perforin upon PD-1 blockade” value ([8]; PD-1hi abundant tumors) was “failed to elicit any response”. The “secretion of IFN-γ, TNF, IL-2 and perforin upon PD-1 blockade” value ([8]; PD-1hi scarce tumors) was “could be increased only in some of the PD-hi scarce tumors”.
